Laboratory results published in US5216147A, “Radioactive benzodiazepine derivatives” (Sumitomo Chemical Company, Limited, priority 1987, dated 1993).

Molecular target: Benzodiazepine Receptors
Assay: Benzodiazepine receptor binding affinity: displacement of 3H-diazepam from rat synaptosomal membranes
Conditions: for Ki: 3H-diazepam; for Ki / IC50: 4° C., 15 min, triplicate; for IC50: inhibition of specific 3H-diazepam binding; for Relative Potency: relative to Diazepam = 100, 3H-diazepam
Procedure: 2'-Iododiazepam, Diazepam and Fludiazepam were screened as for benzodiazepine binding affinity according to the method reported by Nakatsuka (Life Sciences 36 (2) 113-119, 1985). An aliquot of synaptosomal membrane preparations was incubated at 4° C. for 15 min. with each of the unlabeled competing drugs (2'-Iodoiazepam, Diazepam and Fludiazepam) in different concentration and 3H-diazepam. The incubation was terminated by adding ice-cold Tris-HCl buffer followed by a rapid filtration through a Whatman GF/B filter. The bound 3H-diazepam retained on the filter was extracted with ACS-II (Amersham) and counted. All incubations were conducted in triplicate. Nonspecific binding was determined in tubes containing diazepam. Specific binding was calculated by subtracting the nonspecific binding from the total binding. IC50 values, the concentrations of the tested compounds that cause 50% inhibition of the specific 3H-diazepam were determined from the displacement curves obtained.

`CN1C(=O)CN=C(c2ccccc2I)c2cc(Cl)ccc21` [2'-Iododiazepam, 7-chloro-1-methyl-5-(2-iodophenyl)-3H-1,4-benzodiazepin-2-one] was tested, and the Ki was 0.21 nM, the IC50 was 0.25 nM and the “Relative Potency” value was 3600.
In the case of `CN1C(=O)CN=C(c2ccccc2)c2cc(Cl)ccc21` [Diazepam], the Ki is reported as 7.7 nM, the IC50 is reported as 9 nM and the “Relative Potency” value is reported as 100.
In the case of `CN1C(=O)CN=C(c2ccccc2F)c2cc(Cl)ccc21` [Fludiazepam], the Ki is reported as 1 nM, the IC50 is reported as 1.2 nM and the “Relative Potency” value is reported as 770.
